Test results as given in patent US10111873B1, “Dihydropyrimidinone derivatives” (KING SAUD UNIVERSITY, priority 2018, dated 2018).

Row | SMILES | melting point [°C]
1 | O=C1NC=C(C(=O)c2ccc(N3CCNCC3)cc2)C(c2ccc(Cl)cc2)N1 (stereo not shown) [DHPM-5, 4-(4-Chlorophenyl)-5-[4-(piperazin-1-yl)benzoyl]-3,4-dihydropyrimidin-2(1H)-one] | 160 to 162
2 | COc1ccccc1C1NC(=O)NC=C1C(=O)c1ccc(N2CCNCC2)cc1 (stereo not shown) [DHPM-6, 4-(2-methoxyphenyl)-5-[4-(piperazin-1-yl)benzoyl]-3,4-dihydropyrimidin-2(1H)-one] | 120 to 122
3 | O=C1NC=C(C(=O)c2ccc(N3CCOCC3)cc2)C(c2ccccc2)N1 (stereo not shown) [DHPM-11, 5-[4-(morpholin-4-yl)benzoyl]-4-phenyl-3,4-dihydropyrimidin-2(1H)-one] | 258 to 260
4 | O=C1NC=C(C(=O)c2ccc(N3CCOCC3)cc2)C(c2ccccc2[N+](=O)[O-])N1 (stereo not shown) [DHPM-12, 5-[4-(morpholin-4-yl)benzoyl]-4-(2-nitrophenyl)-3,4-dihydropyrimidin-2(1H)-one] | 198 to 200
5 | O=C1NC=C(C(=O)c2ccc(N3CCOCC3)cc2)C(c2ccc([N+](=O)[O-])cc2)N1 (stereo not shown) [DHPM-13, 5-[4-(morpholin-4-yl)benzoyl]-4-(4-nitrophenyl)-3,4-dihydropyrimidin-2(1H)-one] | 202 to 204
6 | O=C1NC=C(C(=O)c2ccc(N3CCOCC3)cc2)C(c2ccc(Cl)cc2)N1 (stereo not shown) [DHPM-15, 4-(4-chlorophenyl)-5-[4-(morpholin-4-yl)benzoyl]-3,4-dihydropyrimidin-2(1H)-one] | 288 to 290
7 | COc1ccccc1C1NC(=O)NC=C1C(=O)c1ccc(N2CCOCC2)cc1 (stereo not shown) [DHPM-16, 4-(2-methoxyphenyl)-5-[4-(morpholin-4-yl)benzoyl]-3,4-dihydropyrimidin-2(1H)-one] | 178 to 180
8 | O=C1NC=C(C(=O)c2ccc(N3CCOCC3)cc2)C(c2ccc(O)cc2)N1 (stereo not shown) [DHPM-17, 4-(4-hydroxyphenyl)-5-[4-(morpholin-4-yl)benzoyl]-3,4-dihydropyrimidin-2(1H)-one] | 118 to 120
9 | O=C1NC=C(C(=O)c2ccc(N3CCOCC3)cc2)C(c2cccc(O)c2)N1 (stereo not shown) [DHPM-18, 4-(3-hydroxyphenyl)-5-[4-(morpholin-4-yl)benzoyl]-3,4-dihydropyrimidin-2(1H)-one] | 120 to 122
10 | CCOc1ccc(C2NC(=O)NC=C2C(=O)c2ccc(N3CCOCC3)cc2)cc1 (stereo not shown) [DHPM-20, 4-(4-ethoxyphenyl)-5-[4-(morpholin-4-yl)benzoyl]-3,4-dihydropyrimidin-2(1H)-one] | 200 to 202

Next, values leading:

Row | melting point [°C] | SMILES
11 | 150 to 152 | O=C1NC=C(C(=O)c2ccc(N3CCNCC3)cc2)C(c2ccccc2)N1 (stereo not shown) [DHPM-1, 4-phenyl-5-[4-(piperazin-1-yl)benzoyl]-3,4-dihydropyrimidin-2(1H)-one]
12 | 170 to 172 | O=C1NC=C(C(=O)c2ccc(N3CCNCC3)cc2)C(c2ccccc2[N+](=O)[O-])N1 (stereo not shown) [DHPM-2, 4-(2-Nitrophenyl)-5-[4-(piperazin-1-yl)benzoyl]-3,4-dihydropyrimidin-2(1H)-one]
13 | 175 to 177 | O=C1NC=C(C(=O)c2ccc(N3CCNCC3)cc2)C(c2ccc([N+](=O)[O-])cc2)N1 (stereo not shown) [DHPM-3, 4-(4-Nitrophenyl)-5-[4-(piperazin-1-yl)benzoyl]-3,4-dihydropyrimidin-2(1H)-one]
14 | 180 to 182 | O=C1NC=C(C(=O)c2ccc(N3CCNCC3)cc2)C(c2cccc([N+](=O)[O-])c2)N1 (stereo not shown) [DHPM-4, 4-(3-Nitrophenyl)-5-[4-(piperazin-1-yl)benzoyl]-3,4-dihydropyrimidin-2(1H)-one]
15 | 210 to 212 | O=C1NC=C(C(=O)c2ccc(N3CCNCC3)cc2)C(c2ccc(O)cc2)N1 (stereo not shown) [DHPM-7, 4-(4-Hydroxyphenyl)-5-[4-(piperazin-1-yl)benzoyl]-3,4-dihydropyrimidin-2(1H)-one]
16 | 158 to 160 | O=C1NC=C(C(=O)c2ccc(N3CCNCC3)cc2)C(c2cccc(O)c2)N1 (stereo not shown) [DHPM-8, 4-(3-Hydroxyphenyl)-5-[4-(piperazin-1-yl)benzoyl]-3,4-dihydropyrimidin-2(1H)-one]
17 | 118 to 120 | COc1cccc(C2NC(=O)NC=C2C(=O)c2ccc(N3CCNCC3)cc2)c1 (stereo not shown) [DHPM-9, 4-(3-methoxyphenyl)-5-[4-(piperazin-1-yl)benzoyl]-3,4-dihydropyrimidin-2(1H)-one]
18 | 88 to 90 | CCOc1cccc(C2NC(=O)NC=C2C(=O)c2ccc(N3CCNCC3)cc2)c1 (stereo not shown) [DHPM-10, 4-(3-Ethoxyphenyl)-5-[4-(piperazin-1-yl)benzoyl]-3,4-dihydropyrimidin-2(1H)-one]
19 | 205 to 207 | O=C1NC=C(C(=O)c2ccc(N3CCOCC3)cc2)C(c2cccc([N+](=O)[O-])c2)N1 (stereo not shown) [DHPM-14, 5-[4-(morpholin-4-yl)benzoyl]-4-(3-nitrophenyl)-3,4-dihydropyrimidin-2(1H)-one]
